Experimental data published in patent US20190124918A1, “BIOFILM FORMATION INHIBITOR AND BIOFILM FORMATION INHIBITING COMPOSITION” (KAO CORPORATION, priority 2016, published 2019).

What was measured:
[1] = system: Pseudomonas PAO1 strain (ATCC 15692); assay: Amount of biofilm formed (crystal violet, OD570), 96-well microplate culture; type: cell-based
Procedure, shortened: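 PAO1 suspension in Mueller Hinton Broth (OD600 1/10^6) grown stationary 24 h at 30 °C with compounds dried from ethanol plus DMSO, final about 7–333 ppm or as listed. Biofilm stained with 0.1% crystal violet, ethanol-eluted, OD570; inhibition % = {1−(compound OD570/ethanol-control OD570)}×100.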

[2] = system: Pseudomonas PAO1 strain (ATCC 15692); assay: Growth of test microbe (turbidity OD600), 96-well microplate culture; type: cell-based
Procedure, shortened: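 P. aeruginosa PAO1 diluted in Mueller Hinton Broth, exposed to test compound (ethanol stock evaporated onto DMSO in wells) and grown static at 30° C for 24 h; growth read as OD600. Growth inhibition % = (1 − compound OD600/ethanol-control OD600) × 100.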

[3] = high concentration range of 200 ppm or more

Compound: CC1=CC(=O)C=CC1=O [Compound a, p-Toluquinone]
- The amount of the biofilm formed OD570 ([1]; final concentration 7 ppm, EtOH control 0.9163): 0.7549
- BF inhibition (%) ([1]; final concentration 17 ppm): 18.6%
- The amount of the biofilm formed OD570 ([1]; final concentration 20 ppm, EtOH control 0.9564): 0.8231
- BF inhibition (%) ([1]; final concentration 33 ppm): 36.6%
- The amount of the biofilm formed OD570 ([1]; final concentration 33 ppm, EtOH control 0.8974): 0.7891
- BF inhibition (%) ([1]; final concentration 66 ppm): 39.9%
- The amount of the biofilm formed OD570 ([1]; final concentration 67 ppm, EtOH control 0.8853): 0.7094
- BF inhibition (%) ([1]; final concentration 99 ppm): 73.7%
- BF inhibition (%) ([1]; final concentration 116 ppm): 86.3%
- BF inhibition (%) ([1]; final concentration 132 ppm): 85.1%
- The amount of the biofilm formed OD570 ([1]; final concentration 200 ppm, EtOH control 0.9248): 0.7089
- The amount of the biofilm formed OD570 ([1]; final concentration 333 ppm, EtOH control 0.9562): 0.1222
- biofilm formation (in words) [1, 3]: inhibited
- biofilm formation (in words) ([1]; low concentration range of less than 200 ppm): inhibited
- Growth OD600 ([2]; final concentration 7 ppm, EtOH control 0.5913): 0.645
- Growth inhibition (%) ([2]; final concentration 17 ppm): 14.2%
- Growth OD600 ([2]; final concentration 20 ppm, EtOH control 0.6346): 0.5907
- Growth inhibition (%) ([2]; final concentration 33 ppm): 15.4%
- Growth OD600 ([2]; final concentration 33 ppm, EtOH control 0.668): 0.6284
- Growth inhibition (%) ([2]; final concentration 66 ppm): — (No growth inhibition or no BF inhibition)
- Growth OD600 ([2]; final concentration 67 ppm, EtOH control 0.628): 0.5489
- Growth inhibition (%) ([2]; final concentration 99 ppm): — (No growth inhibition or no BF inhibition)
- Growth inhibition (%) ([2]; final concentration 116 ppm): 1.8%
- Growth inhibition (%) ([2]; final concentration 132 ppm): 1.2%
- Growth OD600 ([2]; final concentration 200 ppm, EtOH control 0.6045): 0.3857
- Growth OD600 ([2]; final concentration 333 ppm, EtOH control 0.6088): 0.3334
- microbial growth (in words) [2, 3]: inhibited
